Experiment in all cases: NCI tumour cell line growth inhibition, 48 h
The test system of experiment [1] is DLD-1 colon.
Experiment [2] has as its system DMS 114 small cell lung.
Experiment [3] relates to DMS 273 small cell lung.
The test system of experiment [4] is HOP-18 NSCLC.
Experiment [5] deals with KM20L2 colon.
In experiment [6] the test system is LXFL 529 NSCLC.
For experiment [7], the system named is M19-MEL melanoma.
In experiment [8] the test system is RXF-631 renal.
The subject of experiment [9] is XF 498 CNS.
Experiment [10] deals with P388 leukemia.
Experiment [11] has as its system P388/ADR leukemia.
For experiment [12], the system named is SN12K1 renal.

Each structure is given as a SMILES string. Several values for one entry are separate records, joined by “and”; a condition that tells them apart may be missing. Identical values can stand only once.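 Dose response: 5 concentrations. Exposure: 48 h. Format: 96-well plates. Endpoint: linear interpolation; highest concentration if not reached. The concentration for 50% growth inhibition is given as GI50. Definition used: TGI = concentration required for complete inhibition of growth.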

Turning to `C=C1C(=O)OC2/C=C(\CO)C(OC(C)=O)CC(O)/C(C)=C/C(OC(=O)C(C)CC)C12` (stereo not drawn), the TGI is 26.5 µM in [1]; > 56.8 µM in [2]; 38 µM in experiment [3]; 38.5 µM in [4]; 58.6 µM in experiment [5]; 28.3 µM in [6]. The figures for the TGI in experiment [7], in experiment [8] and in experiment [9] were 33 µM, > 100 µM and 29.7 µM, respectively.
With `CN(C)C(CN)CC1=C(CC(CN)N(C)C)CCC1` (stereo not drawn), the TGI in experiment [1], in [2], in [3], in experiment [4], in experiment [5] and in experiment [7] was > 100 µM each time. The TGI in experiment [10], in experiment [11], in experiment [12] and in experiment [9] was > 100 µM throughout.
As to `COc1cc(/C=C/C(=O)O)ccc1C(=O)O/C=C/c1ccccc1`, the TGI in [1], in [2], in [3], in experiment [4], in [5] and in experiment [7] was > 100 µM each time. Also, the TGI in experiment [10] is > 100 µM; in [11], 68.9 µM; in experiment [12], > 100 µM; in [9], > 100 µM.
Consider `O=C(CP(=O)(O)O)c1cccs1`, for which the TGI in experiment [1], in experiment [2], in experiment [3], in experiment [4], in experiment [5] and in [6] was > 100 µM throughout. The TGI in experiment [7] is > 100 µM.
As for `COc1cc(/C=C2\C(=O)N(C(=O)Cc3ccccc3)N=C2C)ccc1O`, the TGI in experiment [1], in experiment [2], in experiment [3], in experiment [4], in experiment [7] and in [9] was > 100 µM in each case.
Take `COCOc1ccc(OC)cc1`: the TGI in experiment [1], in experiment [3], in experiment [4], in [5], in [7] and in experiment [10] was > 100 µM in each case. Moreover, the TGI in experiment [11], in experiment [12] and in [9] was > 100 µM in each case.
As to `C/C(=C\c1ccccc1)C(=O)CCN1CCOCC1`, the TGI amounted to 33.4 µM in [1]; 35.2 µM in experiment [2]; 35.3 µM in experiment [3]; 32.3 µM in experiment [4]; 36.1 µM in [5]; 33.8 µM in [7]. Further, the TGI is 36.1 µM in [10], > 55.1 µM in [11], 32.8 µM in experiment [12] and 33.3 µM in experiment [9].
For `C/C(=N/NC(N)=S)c1ccc2ccccc2c1`, the TGI in experiment [1] is > 100 µM; in experiment [2], 49.9 µM; in experiment [3] it was 90.9 µM; in [5], 80.4 µM; in experiment [6], > 100 µM; in [7] it was > 100 µM. Moreover, the TGI in experiment [9] was > 100 µM.
As to `CSC1CC2C(CC1(C)O)C2(C)C` (stereo not drawn), the TGI was > 100 µM in experiment [1]; 72.1 µM and > 100 µM in [2]; > 100 µM in experiment [3]; > 100 µM in [5]; > 100 µM in experiment [6]; > 100 µM in experiment [7]. Further, the TGI in experiment [9] is 79.1 µM and > 100 µM. For the same compound, the GI50 in experiment [2] is 15.7 µM and > 100 µM; in [9] it was 16.4 µM and > 100 µM.
Take `CCOC(=O)C1=C(C(C)=O)CSC(c2ccccc2)=N1`: the TGI in experiment [1], in experiment [2], in [3], in [4], in [5] and in [7] was > 100 µM in each case. In addition, the TGI in experiment [10], in [11], in [12] and in experiment [9] was > 100 µM each time.
Consider `COC(=O)c1csnn1`, for which the TGI in [2], in experiment [3], in [5], in experiment [6], in experiment [7] and in experiment [9] was > 100 µM each time.
For `CCC(C(=O)O)c1ccc(OCc2ccccc2)cc1` (stereo not drawn), the TGI in [1], in experiment [2], in experiment [3], in experiment [5], in [6] and in experiment [9] was > 100 µM each time.
As to `COc1ccc(-c2cc(=O)c3cc4c(cc3[nH]2)OCO4)c(OC)c1OC`, the TGI in experiment [1], in [2], in experiment [3], in experiment [4], in experiment [5] and in [6] was > 100 µM each time. Further, the TGI in [7] and in experiment [9] was > 100 µM each time.
Regarding `CCN(CC)CCNc1ccc2nnn3c4ccc(OC)cc4c(=O)c1c23`, the TGI was determined as 22 µM in experiment [1]; 21.2 µM in experiment [2]; 23.2 µM in experiment [4]; 20 µM in experiment [5]; 21.4 µM in experiment [6]; 26.3 µM in experiment [7]. In [8], this compound gave a TGI of 16.3 µM.
In the case of `CC(C)(C)C1=Cc2cc3cc(C(C)(C)C)[nH]c(=O)c3cc2S(=O)(=O)N1`, the TGI in [1] is > 100 µM; in experiment [2] it was 44.4 µM; in experiment [6] it was 76.7 µM; in experiment [7], 40.7 µM.

The values above are taken from PubChem BioAssay (NCI).
